Literature values in patent US6399115B2, “Method and composition for the treatment of benign prostate hypertrophy (BPH) and prevention of prostate cancer” (priority 1999, dated 2002).

Legend:
plasma testosterone = details: in vivo
5 alpha-reductase = details: human prostatic tissue
[1] = among the major carotenoids

## [Cu] [Copper]
Plasma testosterone
  levels of plasma testosterone: reduce

## [Zn] [Zinc]
5 alpha-reductase
  relationship with 5 alpha-reductase activity: inverse relationship

## CC(C)=CCC/C(C)=C/C=C/C(C)=C/C=C/C(C)=C/C=C/C=C(C)/C=C/C=C(C)/C=C/C=C(\C)CCC=C(C)C [lycopene]
[1]
  quenching free oxygen radicals: most effective and significant
